According to publication PMC9038752, “Molecular mechanisms of bifunctional vitamin D receptor agonist-histone deacetylase inhibitor hybrid molecules in triple-negative breast cancer” (Scientific Reports, 2022):
“Also recorded” adds a separate entry of the source.

Columns and labels:
[1] = test system: H3K9 and H3K27 acetylation (class I HDACs); assay: Western blotting of H3K9 and H3K27 acetylation in 4TO7 cells; type: cell-based, mouse; details: 10^–5 M, 6 h, western blot
Protocol: (§1) The hybrids were assessed to determine their HDACi and VDR agonist activity as well as their antiproliferative properties relative to DK-406. HDACi activity was assessed in vitro using an acetylated lysine substrate that releases a fluorescent reporter upon HDACi deacetylation and subsequent trypsin digestion. Increasing sidechain length of pyrimidine hybrids enhanced the potency of HDAC6 inhibition, with several compounds inhibiting HDAC6 with a sub-micromolar IC50, similar to that of DK-406 (Fig. 4a). […] Next, we analyzed the effects of compounds on levels of H3K9 and H3K27 acetylation in 4TO7 cells, which are controlled by class I HDACs[29],[30]. […] We also tested the capacity of analogues to induce tubulin acetylation, controlled by class II enzyme HDAC6[32], in 4TO7 cells. […]
(§2) Figure 4 (a) Results of in vitro assays for inhibition of purified HDAC2 and HDAC6 by DK-406 and heterocyclic hybrids as measured by inhibition of deacetylation of a fluorometric substrate (see Methods for details). […]
(§3) After treatments, 4T07 cells were solubilized in Lysis Buffer (20 mM Tris, pH 8, 150 mM NaCl, 1% Triton X-100, 3,5 mM SDS, 13 mM deoxycholic acid) and proteins extracted were separated on a 4–15% Tris/Glycine/SDS gel (BIO RAD). […] Signal was detected using Clarity ECL chemiluminescent substrates (Bio-Rad) and ChemiDoc Imaging System from the same company was used to quantify the intensity of bands. […]

VDR = target: T1, VDR (Mus musculus, UniProt P48281); assay: Cyp24a1 induction assay for VDR agonism in 4T1 cells; type: cell-based; details: 24 h
T1 construct: endogenous in cells; host or cells: 4TO7 and 4T1 mouse triple-negative breast cancer cells
T1 sequence (P48281 1-422): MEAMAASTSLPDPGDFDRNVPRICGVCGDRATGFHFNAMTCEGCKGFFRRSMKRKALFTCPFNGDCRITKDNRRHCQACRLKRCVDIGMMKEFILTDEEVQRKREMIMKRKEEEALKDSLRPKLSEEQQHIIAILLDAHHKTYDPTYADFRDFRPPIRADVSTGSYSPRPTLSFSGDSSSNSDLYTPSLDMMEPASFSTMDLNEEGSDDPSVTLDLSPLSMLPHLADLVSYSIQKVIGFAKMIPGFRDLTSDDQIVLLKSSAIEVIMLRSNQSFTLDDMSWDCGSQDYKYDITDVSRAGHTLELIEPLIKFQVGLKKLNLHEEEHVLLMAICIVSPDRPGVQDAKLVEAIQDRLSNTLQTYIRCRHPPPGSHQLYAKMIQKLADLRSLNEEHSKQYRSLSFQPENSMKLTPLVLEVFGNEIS
Protocol: Figure 5 (a) and (b) Analysis of induced Cyp24a1 expression in 4TO7 (a) and 4T1 (b) cells to test for VDR agonism of DK-406 and heterocyclic analogues after 24 h treatment. c-e. Analysis of the cytotoxicity of hybrid compounds after 24 h using the MTGlo assay (see Methods for details) in 4TO7 (c), 4T1 (d) and MDA-MB-231 (e) cells. […] Each condition was compared to control. *: p ≤ 0.05, **: p ≤ 0.01, ***: p ≤ 0.001, ****: p ≤ 0.0001, ns: not significant.
As previously, we were interested in studying the efficacy of hybrids in models of TNBC. We used the 4T1 cell line[20] as well as the related TNBC cell line 4TO7, which was derived from the same mouse tumor as 4T1 cells in Balb/c mice[33]. 4TO7 cells readily form primary tumors. […] These lines also have the advantage that anti-tumor efficacy studies can be performed in Balb/c mice, which have intact immune systems. Compounds were initially tested for VDR agonist activity in 4TO7 cells by screening induction of the VDR target gene Cyp24a1. […] The pyridyl hybrids were then tested for efficacy in vitro in 4TO7 and 4T1 cells using an MT-Glo assay in which only viable cells can convert a precursor into a substrate for a luciferase bioluminescence assay (Fig. 5c,d; see Methods for details).
Mouse 4T07 cells and 4T01 cells were cultured in DMEM (319–005-CL; WISENT Inc.) supplemented with 10% heat-inactivated FBS. […]

[2] = test system: tubulin acetylation (HDAC6); assay: Western blotting of tubulin acetylation in 4TO7 cells; type: cell-based, mouse; details: 6 h, western blot
Protocol: as §1, §2, §3

Row | Compound | H3 acetylation at K9 and K27 [1] | VDR agonist activity (Cyp24a1 induction) (VDR) | tubulin acetylation ([2]; 10^–6 M) | tubulin acetylation ([2]; 10^–5 M)
1 | CCC(CC)(c1ccc(OCCCCCC(=O)NO)cc1)c1ccc(OCC(O)C(C)(C)C)c(C)n1 (stereo not drawn) [AM-193] | enhanced H3 acetylation, although to a lesser degree than DK-406 | full agonists; also recorded: potency of AM-193 was confirmed | consistently induced tubulin acetylation | –
2 | CCC(CC)(c1ccc(C(=O)NCCCCCC(=O)NO)cc1)c1ccc(OCC(O)C(C)(C)C)c(C)c1 (stereo not drawn) [DK-406] | induced H3 acetylation at K9 and K27 | full agonists | – | consistently induced tubulin acetylation
